Data on 7 compounds can be found in ChEMBL document CHEMBL1149552, “Praziquantel derivatives I: Modification of the aromatic ring” (2007).

SMILES strings stand for the structures. ≈ marks a conversion by molar mass, not a printed value. Where only a bound is given, the exact number is not on record here.

Assay type in all cases: functional
Assay [1] has as its system Schistosoma mansoni. The assay can be described thus: Antischistosomal activity against Schistosoma mansoni assessed as complete spastic paralysis.
For assay [2], the system named is Schistosoma mansoni. Kind of assay: Antischistosomal activity against Schistosoma mansoni assessed as 100% killing of schistosomes.
Assay [3] has as its system Schistosoma mansoni. Kind of assay: Antischistosomal activity against Schistosoma mansoni assessed as 100% killing of shcistomes relative to Praziquantel.
The test system of assay [4] is Schistosoma mansoni. Kind of assay: Antischistosomal activity against Schistosoma mansoni assessed as shcistomes paralysis relative to Praziquantel.

On to `O=C(C1CCC(O)CC1)N1CC(=O)N2CCc3ccccc3C2C1` (stereo unspecified), for which the Activity in the assay on Schistosoma mansoni [1] amounted to 75 µM; with Schistosoma mansoni [3] it was 1.5%; in the assay with Schistosoma mansoni [4] it was 1.3%. Further, the MLC in the assay on Schistosoma mansoni [2] was determined as 200 µM (≈ 65.7 µg/mL).
Taken in the same sequence, the figures for `O=C(C1CCCCC1)N1CC(=O)N2CCc3ccc([N+](=O)[O-])cc3C2C1` (stereo unspecified) were greater than 300 µM, less than 1%, less than 0.3% and greater than 300 µM.
Consider `Nc1ccc2c(c1)C1CN(C(=O)C3CCCCC3)CC(=O)N1CC2` (stereo unspecified), for which the Activity in the assay with Schistosoma mansoni [1] was 10 µM; in the assay with Schistosoma mansoni [3], 10.7%; in the assay with Schistosoma mansoni [4], 10%. In addition, in the assay on Schistosoma mansoni [2], the MLC was determined as 28 µM (≈ 9.17 µg/mL).
For the compound `CC(=O)Nc1ccc2c(c1)C1CN(C(=O)C3CCCCC3)CC(=O)N1CC2` (stereo unspecified), the Activity was greater than 300 µM in the assay with Schistosoma mansoni [1], less than 1% with Schistosoma mansoni [3] and less than 0.3% in the assay on Schistosoma mansoni [4]. In addition, the MLC in the assay with Schistosoma mansoni [2] is greater than 300 µM.
Regarding `Nc1ccc(C(=O)N2CC(=O)N3CCc4ccccc4C3C2)cc1` (stereo unspecified), the Activity in the assay on Schistosoma mansoni [1] came out at 7 µM; in the assay with Schistosoma mansoni [3] it was 16.6%; in the assay with Schistosoma mansoni [4], 14.3%. Besides, the MLC with Schistosoma mansoni [2] was determined as 18 µM (≈ 5.78 µg/mL).
Regarding `Nc1cccc(C(=O)N2CC(=O)N3CCc4ccccc4C3C2)c1` (stereo unspecified), the Activity was determined as 7 µM in the assay with Schistosoma mansoni [1], 25% with Schistosoma mansoni [3] and 14.3% with Schistosoma mansoni [4]. Also, the MLC in the assay on Schistosoma mansoni [2] came out at 12 µM (≈ 3.86 µg/mL).
As for `O=C(C1CCCCC1)N1CC(=O)N2CCc3ccccc3C2C1` (stereo unspecified) [PRAZIQUANTEL], the Activity with Schistosoma mansoni [1] is 1 µM. Besides, the MLC in the assay with Schistosoma mansoni [2] was found to be 3 µM (≈ 0.937 µg/mL).
